# Data from the supplement of paper PMC10307832.
# How the values were obtained:
# Assay in all cases: relative viability (nuclei count vs DMSO), 5 days (fraction); higher = more cells survive
# 201T = system: 201T
# Summary of the method: (§1)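 After 5 days of treatment, lung cancer cells in 1536-well plates were fixed and stained in a single step (final 0.05% Triton X-100, 1% formaldehyde, 1 ug/ml Hoechst) and their nuclei counted on 4× images. Treatment had been applied by pin tool the day after seeding as one drug alone or as a fixed anchor-drug dose with five library-drug doses (not always all listed) in √10 steps. Relative viability is the nuclei count of treated wells divided by that of vehicle wells, and values are medians of duplicate plates.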
# COR-L23 = system: COR-L23
# Summary of the method: as §1
# EPLC-272H = system: EPLC-272H
# Summary of the method: as §1
# H3255 = system: H3255
# Summary of the method: as §1
# HCC-44 = system: HCC-44
# Summary of the method: as §1
# LOU-NH91 = system: LOU-NH91
# Summary of the method: as §1
# NCI-H1650 = system: NCI-H1650
# Summary of the method: as §1
# NCI-H1734 = system: NCI-H1734
# Summary of the method: as §1
# NCI-H1793 = system: NCI-H1793
# Summary of the method: as §1
# NCI-H1993 = system: NCI-H1993
# Summary of the method: as §1
# NCI-H2023 = system: NCI-H2023
# Summary of the method: as §1
# NCI-H2085 = system: NCI-H2085
# Summary of the method: as §1
# NCI-H2170 = system: NCI-H2170
# Summary of the method: as §1
# NCI-H2347 = system: NCI-H2347
# Summary of the method: as §1
# NCI-H2405 = system: NCI-H2405
# Summary of the method: as §1
# NCI-H3122 = system: NCI-H3122
# Summary of the method: as §1
# NCI-H441 = system: NCI-H441
# Summary of the method: as §1
# NCI-H520 = system: NCI-H520
# Summary of the method: as §1
# NCI-H647 = system: NCI-H647
# Summary of the method: as §1
# PC-14 = system: PC-14
# Summary of the method: as §1
# RERF-LC-KJ = system: RERF-LC-KJ
# Summary of the method: as §1
# SW 900 = system: SW 900
# Summary of the method: as §1
smiles,measurement,setting,value
NC(=O)Nc1cc(-c2cccc(F)c2)sc1C(=O)N[C@H]1CCCNC1 [AZD7762] + Nc1ncn([C@H]2C[C@H](O)[C@@H](CO)O2)c(=O)n1 [Decitabine] (partner 2 µM),relative viability,201T; first compound 0.01 µM,0.831
same,relative viability,201T; first compound 0.03162 µM,0.872
same,relative viability,201T; first compound 0.1 µM,0.903
same,relative viability,201T; first compound 0.3162 µM,0.909
same,relative viability,201T; first compound 1 µM,0.938
same,relative viability,COR-L23; first compound 0.01 µM,0.485
same,relative viability,COR-L23; first compound 0.03162 µM,0.535
same,relative viability,COR-L23; first compound 0.1 µM,0.563
same,relative viability,COR-L23; first compound 0.3162 µM,0.35
same,relative viability,COR-L23; first compound 1 µM,0.166
same,relative viability,EPLC-272H; first compound 0.01 µM,0.352
same,relative viability,EPLC-272H; first compound 0.03162 µM,0.445
same,relative viability,EPLC-272H; first compound 0.1 µM,0.356
same,relative viability,EPLC-272H; first compound 0.3162 µM,0.421
same,relative viability,EPLC-272H; first compound 1 µM,0.239
same,relative viability,H3255; first compound 0.01 µM,0.528
same,relative viability,H3255; first compound 0.03162 µM,0.708
same,relative viability,H3255; first compound 0.1 µM,0.683
same,relative viability,H3255; first compound 0.3162 µM,0.599
same,relative viability,H3255; first compound 1 µM,0.625
same,relative viability,HCC-44; first compound 0.01 µM,0.994
same,relative viability,HCC-44; first compound 0.03162 µM,0.959
same,relative viability,HCC-44; first compound 0.1 µM,1.01
same,relative viability,HCC-44; first compound 0.3162 µM,0.987
same,relative viability,HCC-44; first compound 1 µM,1.08
same,relative viability,LOU-NH91; first compound 0.01 µM,0.823
same,relative viability,LOU-NH91; first compound 0.03162 µM,0.796
same,relative viability,LOU-NH91; first compound 0.1 µM,0.816
same,relative viability,LOU-NH91; first compound 0.3162 µM,0.761
same,relative viability,LOU-NH91; first compound 1 µM,0.673
same,relative viability,NCI-H1650; first compound 0.01 µM,0.606
same,relative viability,NCI-H1650; first compound 0.03162 µM,0.593
same,relative viability,NCI-H1650; first compound 0.1 µM,0.62
same,relative viability,NCI-H1650; first compound 0.3162 µM,0.477
same,relative viability,NCI-H1650; first compound 1 µM,0.284
same,relative viability,NCI-H1734; first compound 0.01 µM,0.567
same,relative viability,NCI-H1734; first compound 0.03162 µM,0.581
same,relative viability,NCI-H1734; first compound 0.1 µM,0.51
same,relative viability,NCI-H1734; first compound 0.3162 µM,0.517
same,relative viability,NCI-H1734; first compound 1 µM,0.39
same,relative viability,NCI-H1793; first compound 0.01 µM,0.437
same,relative viability,NCI-H1793; first compound 0.03162 µM,0.551
same,relative viability,NCI-H1793; first compound 0.1 µM,0.689
same,relative viability,NCI-H1793; first compound 0.3162 µM,1.28
same,relative viability,NCI-H1793; first compound 1 µM,0.39
same,relative viability,NCI-H1993; first compound 0.01 µM,0.626
same,relative viability,NCI-H1993; first compound 0.03162 µM,0.606
same,relative viability,NCI-H1993; first compound 0.1 µM,0.657
same,relative viability,NCI-H1993; first compound 0.3162 µM,0.597
same,relative viability,NCI-H1993; first compound 1 µM,0.638
same,relative viability,NCI-H2023; first compound 0.01 µM,0.249
same,relative viability,NCI-H2023; first compound 0.03162 µM,0.25
same,relative viability,NCI-H2023; first compound 0.1 µM,0.179
same,relative viability,NCI-H2023; first compound 0.3162 µM,0.121
same,relative viability,NCI-H2023; first compound 1 µM,0.0986
same,relative viability,NCI-H2085; first compound 0.01 µM,0.602
same,relative viability,NCI-H2085; first compound 0.03162 µM,0.693
same,relative viability,NCI-H2085; first compound 0.1 µM,0.672
same,relative viability,NCI-H2085; first compound 0.3162 µM,0.743
same,relative viability,NCI-H2085; first compound 1 µM,0.702
same,relative viability,NCI-H2170; first compound 0.01 µM,0.465
same,relative viability,NCI-H2170; first compound 0.03162 µM,0.544
same,relative viability,NCI-H2170; first compound 0.1 µM,0.497
same,relative viability,NCI-H2170; first compound 0.3162 µM,0.581
same,relative viability,NCI-H2170; first compound 1 µM,0.436
same,relative viability,NCI-H2347; first compound 0.01 µM,0.558
same,relative viability,NCI-H2347; first compound 0.03162 µM,0.656
same,relative viability,NCI-H2347; first compound 0.1 µM,0.725
same,relative viability,NCI-H2347; first compound 0.3162 µM,0.79
same,relative viability,NCI-H2347; first compound 1 µM,0.752
same,relative viability,NCI-H2405; first compound 0.01 µM,0.806
same,relative viability,NCI-H2405; first compound 0.03162 µM,0.777
same,relative viability,NCI-H2405; first compound 0.1 µM,0.808
same,relative viability,NCI-H2405; first compound 0.3162 µM,0.765
same,relative viability,NCI-H2405; first compound 1 µM,0.487
same,relative viability,NCI-H3122; first compound 0.01 µM,0.451
same,relative viability,NCI-H3122; first compound 0.03162 µM,0.427
same,relative viability,NCI-H3122; first compound 0.1 µM,0.442
same,relative viability,NCI-H3122; first compound 0.3162 µM,0.415
same,relative viability,NCI-H3122; first compound 1 µM,0.434
same,relative viability,NCI-H441; first compound 0.01 µM,0.274
same,relative viability,NCI-H441; first compound 0.03162 µM,0.29
same,relative viability,NCI-H441; first compound 0.1 µM,0.328
same,relative viability,NCI-H441; first compound 0.3162 µM,0.344
same,relative viability,NCI-H441; first compound 1 µM,0.27
same,relative viability,NCI-H520; first compound 0.01 µM,0.521
same,relative viability,NCI-H520; first compound 0.03162 µM,0.522
same,relative viability,NCI-H520; first compound 0.1 µM,0.52
same,relative viability,NCI-H520; first compound 0.3162 µM,0.475
same,relative viability,NCI-H520; first compound 1 µM,0.246
same,relative viability,NCI-H647; first compound 0.01 µM,0.475
same,relative viability,NCI-H647; first compound 0.03162 µM,0.501
same,relative viability,NCI-H647; first compound 0.1 µM,0.441
same,relative viability,NCI-H647; first compound 0.3162 µM,0.356
same,relative viability,NCI-H647; first compound 1 µM,0.156
same,relative viability,PC-14; first compound 0.01 µM,0.234
same,relative viability,PC-14; first compound 0.03162 µM,0.225
same,relative viability,PC-14; first compound 0.1 µM,0.166
same,relative viability,PC-14; first compound 0.3162 µM,0.137
same,relative viability,PC-14; first compound 1 µM,0.0898
same,relative viability,RERF-LC-KJ; first compound 0.01 µM,0.743
same,relative viability,RERF-LC-KJ; first compound 0.03162 µM,0.793
same,relative viability,RERF-LC-KJ; first compound 0.1 µM,0.962
same,relative viability,RERF-LC-KJ; first compound 0.3162 µM,0.845
same,relative viability,RERF-LC-KJ; first compound 1 µM,0.611
same,relative viability,SW 900; first compound 0.01 µM,0.402
same,relative viability,SW 900; first compound 0.03162 µM,0.477
same,relative viability,SW 900; first compound 0.1 µM,0.551
same,relative viability,SW 900; first compound 0.3162 µM,0.481
same,relative viability,SW 900; first compound 1 µM,0.451
